Source: patent US5164381A, “Pharmacologically active 1,5-diaryl-3-substituted pyrazoles and method for synthesizing the same” (Ortho Pharmaceutical Corporation, priority 1991, dated 1992)

Test system: Lewis strain laboratory rats
Test: In vivo alleviation of inflammation: polyarthritis (adjuvant, Mycobacterium butyricum) in rats, inhibition of paw volume increase
Conditions: Rattus norvegicus, po, rat; read-out: ED50 (effective dose to obtain a 50% inhibition of inflammation)
Description: Polyarthritis was induced in Lewis strain laboratory rats (weight=about 200 grams) by injection of a suspension of Mycobacterium butyricum in mineral oil into the subplantar tissue of the mammal's hind paws. On day 10 after the injection, the rats were assigned to groups, and paw volumes and body weights were recorded. Paw volumes of the contralateral, uninjected hind paw were determined by mercury plethylsmography. Per oral (p.o.) dosing began and continued for five consecutive days thereafter. On day 14 after the initial injection, approximately four hours after the final dose was administered, paw volumes and body weights were recorded and quantitated.
Anti-inflammatory activity of the substituted pyrazole compounds is expressed as the percent inhibition of paw volume increase.

**Q.** Which ED50 does the source give for `COc1ccc(-n2nc(CCC(=O)N(C)O)cc2-c2ccc(C(F)(F)F)cc2)cc1` [Compound 79] here?
**A.** 3.2 mg/kg

**Q.** `COc1ccc(-c2cc(CCC(=O)N(C)O)nn2-c2ccc(Cl)cc2)cc1` [Compound 112] was tested. Which ED50 did it give?
**A.** 16.3 mg/kg

**Q.** For `COc1ccc(-n2nc(CCC(=O)N(C)OC(=O)CCC(=O)O)cc2-c2ccc(C)cc2)cc1` [Compound 130], which ED50 is on record?
**A.** 11.5 mg/kg

**Q.** How did the ED50 turn out when `COc1ccc(-n2nc(CCC(=O)N(C)OC(=O)CN(C)C)cc2-c2ccc(Cl)cc2)cc1` [Compound 134, 3-[5-(4-Chlorophenyl)-1-(4-methoxyphenyl)-3-pyrazolyl]-N',N'-dimethylglycinyloxy-N-methylpropanamide] was run?
**A.** 12.5 mg/kg

Same assay, conditions: po, 336 h; 10 mpk p.o., rat; read-out: % INH. p.o. (percentage inhibition of pad swelling)

**Q.** `COc1ccccc1-n1nc(CCC(=O)O)cc1-c1ccc(Cl)cc1` [Compound 103] was tested. Which inhibition in vivo at 10 mg/kg did it give?
**A.** 55%

**Q.** For `COc1ccc(-n2nc(CCC(=O)O)cc2-c2ccc(C)cc2)cc1` [Compound 105], which inhibition in vivo at 10 mg/kg is on record?
**A.** 87%

**Q.** `COc1ccc(-n2nc(CCC(=O)O)cc2-c2cccc(C)c2)cc1` [Compound 106] was tested. Which inhibition in vivo at 10 mg/kg did it give?
**A.** 11%

**Q.** Which inhibition in vivo at 10 mg/kg does the source give for `COc1ccc(-n2nc(CCC(=O)O)cc2-c2ccc(C)c(C)c2)cc1` [Compound 107] here?
**A.** 30%

**Q.** How did the inhibition in vivo at 10 mg/kg turn out when `COc1ccc(-n2nc(CCC(=O)O)cc2-c2ccccc2C)cc1` [Compound 109] was run?
**A.** 1%

**Q.** Which inhibition in vivo at 10 mg/kg does the source give for `CCc1ccc(-c2cc(CCC(=O)O)nn2-c2ccc(OC)cc2)cc1` [Compound 110] here?
**A.** 51%

**Q.** Which inhibition in vivo at 10 mg/kg does the source give for `COc1ccc(-c2cc(CCC(=O)N(C)O)nn2-c2ccc(OC)cc2)cc1` [Compound 113] here?
**A.** 34%

**Q.** For `COc1ccc(-n2nc(CCC(=O)N(C)O)cc2-c2cccc(C)c2)cc1` [Compound 115], which inhibition in vivo at 10 mg/kg is on record?
**A.** 35%

**Q.** `COc1ccc(-n2nc(CCC(=O)N(C)O)cc2-c2ccccc2C)cc1` [Compound 118] was tested. Which inhibition in vivo at 10 mg/kg did it give?
**A.** 6%

**Q.** Which inhibition in vivo at 10 mg/kg does the source give for `CCc1ccc(-c2cc(CCC(=O)N(C)O)nn2-c2ccc(OC)cc2)cc1` [Compound 119] here?
**A.** 24%

**Q.** `COc1ccc(-n2nc(CCC(=O)N(C)OC(=O)CCCC(=O)O)cc2-c2ccc(Cl)cc2)cc1` [Compound 132] was tested. Which inhibition in vivo at 10 mg/kg did it give?
**A.** 30%

**Q.** How did the inhibition in vivo at 10 mg/kg turn out when `COc1ccc(-n2nc(CCC(=O)N(C)OC(=O)CCC(=O)N3CCOCC3)cc2-c2ccc(Cl)cc2)cc1` [Compound 136] was run?
**A.** 38%

Same assay, conditions: po, 336 h; 15 mpk p.o., rat; read-out: % INH. p.o. (percentage inhibition of pad swelling)

**Q.** Which inhibition in vivo at 15 mg/kg does the source give for `COc1ccc(-n2nc(CCC(=O)NCCO)cc2-c2ccc(Cl)cc2)cc1` [Compound 65] here?
**A.** 21%

**Q.** `Nc1ccc(-n2nc(CCCO)cc2-c2ccc(Cl)cc2)cc1` [Compound 69] was tested. Which inhibition in vivo at 15 mg/kg did it give?
**A.** 17%

**Q.** For `CCOc1ccc(-n2nc(CCC(=O)O)cc2-c2ccc(Cl)cc2)cc1` [Compound 72], which inhibition in vivo at 15 mg/kg is on record?
**A.** 71%

**Q.** How did the inhibition in vivo at 15 mg/kg turn out when `CCOc1ccc(-n2nc(CCC(=O)N(C)O)cc2-c2ccc(Cl)cc2)cc1` [Compound 76] was run?
**A.** 43%

**Q.** For `COc1ccc(-n2nc(CCC(=O)N(O)C(C)C)cc2-c2ccc(Cl)cc2)cc1` [Compound 81, 3-[5-(4-chlorophenyl)-1-(4-methoxyphenyl)-3-pyrazolyl]-N-hydroxy-N-isopropylpropanamide], which inhibition in vivo at 15 mg/kg is on record?
**A.** 50%

**Q.** For `COc1ccc(-n2nc(CCC(=O)N(O)C3CCCCC3)cc2-c2ccc(Cl)cc2)cc1` [Compound 82, 3-[5-(4-chlorophenyl)-1-(4-methoxyphenyl)-3-pyrazolyl]-N-cyclohexyl-N-hydroxypropanamide], which inhibition in vivo at 15 mg/kg is on record?
**A.** 54%

**Q.** How did the inhibition in vivo at 15 mg/kg turn out when `CCN(O)C(=O)CCc1cc(-c2ccc(Cl)cc2)n(-c2ccc(OC)cc2)n1` [Compound 83, 3-[5-(4-chlorophenyl)-1-(4-methoxyphenyl)-3-pyrazolyl]-N-ethyl-N-hydroxypropanamide] was run?
**A.** 42%

**Q.** With `CCOC(=O)CNC(=O)CCc1cc(-c2ccc(Cl)cc2)n(-c2ccc(OC)cc2)n1` [Compound 87] as the compound, how does the inhibition in vivo at 15 mg/kg read?
**A.** 22%

**Q.** How did the inhibition in vivo at 15 mg/kg turn out when `COc1ccc(-n2nc(CCC(=O)NCC(=O)NO)cc2-c2ccc(Cl)cc2)cc1` [Compound 88] was run?
**A.** 36%

**Q.** Which inhibition in vivo at 15 mg/kg does the source give for `COc1ccc(-n2nc(CCC(=O)NCC(=O)N(C)O)cc2-c2ccc(Cl)cc2)cc1` [Compound 89] here?
**A.** 57%

**Q.** For `COc1ccc(-n2nc(CCC(=O)Nc3nnn[nH]3)cc2-c2ccc(Cl)cc2)cc1` [Compound 90], which inhibition in vivo at 15 mg/kg is on record?
**A.** 32%

**Q.** With `COc1ccc(-n2nc(CCCOCC(=O)O)cc2-c2ccc(Cl)cc2)cc1` [Compound 93] as the compound, how does the inhibition in vivo at 15 mg/kg read?
**A.** 17%

**Q.** Which inhibition in vivo at 15 mg/kg does the source give for `CCOC(=O)C(CS)NC(=O)CCc1cc(-c2ccc(Cl)cc2)n(-c2ccc(OC)cc2)n1` (stereo not shown) [Compound 100] here?
**A.** 58%

**Q.** For `CCOC(=O)C(CSC)NC(=O)CCc1cc(-c2ccc(Cl)cc2)n(-c2ccc(OC)cc2)n1` (stereo not shown) [Compound 101], which inhibition in vivo at 15 mg/kg is on record?
**A.** 57%

**Q.** `COc1ccccc1-n1nc(CCC(=O)N(C)O)cc1-c1ccc(Cl)cc1` [Compound 104] was tested. Which inhibition in vivo at 15 mg/kg did it give?
**A.** 39%

**Q.** `COc1ccc(-n2nc(CCC(=O)N(C)O)cc2-c2ccc(C)cc2)cc1` [Compound 111] was tested. Which inhibition in vivo at 15 mg/kg did it give?
**A.** 75%

**Q.** Which inhibition in vivo at 15 mg/kg does the source give for `COc1ccc(-n2nc(CCC(=O)N(C)O)cc2-c2ccccc2)cc1` [Compound 114] here?
**A.** 5%

Same assay, conditions: po, 336 h; 20 mpk p.o., rat; read-out: % INH. p.o. (percentage inhibition of pad swelling)

**Q.** `COc1ccc(-n2nc(CCCOC(=O)CC(C)=O)cc2-c2ccc(Cl)cc2)cc1` [Compound 59, 3-(3-Acetoacetoxypropyl)-5-(4-chlorophenyl)-1-(4-methoxyphenyl) pyrazole] was tested. Which inhibition in vivo at 20 mg/kg did it give?
**A.** 48%

Same assay, conditions: po, 336 h; 25 mpk p.o., rat; read-out: % INH. p.o. (percentage inhibition of pad swelling)

**Q.** Which inhibition in vivo at 25 mg/kg does the source give for `COc1ccc(-n2nc(CCC(=O)ONC(C)(C)C)cc2-c2ccc(Cl)cc2)cc1` [Compound 57, 0-[2-[5-(4-Chlorophenyl)-1-(4-methoxyphenyl)-3-pyrazolyl]ethylcarbonyl]-N-tert-butylhydroxylamine] here?
**A.** 87%

**Q.** `COc1ccc(-n2nc(CCC(=O)N(O)C(C)(C)C)cc2-c2ccc(Cl)cc2)cc1` [Compound 58, 3-[5-(4-chlorophenyl)-1-(4-methoxyphenyl)-3-pyrazolyl]-N-tert-butyl-N-hydroxypropanamide] was tested. Which inhibition in vivo at 25 mg/kg did it give?
**A.** 47%

**Q.** For `OCCCc1cc(-c2ccc(Cl)cc2)n(-c2ccccc2C(F)(F)F)n1` [Compound 60], which inhibition in vivo at 25 mg/kg is on record?
**A.** 8%

**Q.** Which inhibition in vivo at 25 mg/kg does the source give for `COc1ccc(-n2nc(CCC(=O)NCC(=O)O)cc2-c2ccc(Cl)cc2)cc1` [Compound 66, N-Carboxymethyl-3-[5-(4-chlorophenyl)-1-(4-methoxyphenyl)-3-pyrazolyl]propanamide] here?
**A.** 62%

Same assay, conditions: po, 336 h; 30 mpk p.o., rat; read-out: % INH. p.o. (percentage inhibition of pad swelling)

**Q.** For `COc1ccc(-n2nc(CCCN)cc2-c2ccc(Cl)cc2)cc1` [Compound 96, 3-[5-(4-Chlorophenyl)-1-(4-methoxyphenyl)-3-pyrazolyl]propylamine], which inhibition in vivo at 30 mg/kg is on record?
**A.** 56%

**Q.** For `CCN(CC)OC(=O)CCc1cc(-c2ccc(Cl)cc2)n(-c2ccc(OC)cc2)n1` [Compound 102], which inhibition in vivo at 30 mg/kg is on record?
**A.** 87%

Same assay, conditions: po, 336 h; 40 mpk p.o., rat; read-out: % INH. p.o. (percentage inhibition of pad swelling)

**Q.** Which inhibition in vivo at 40 mg/kg does the source give for `CN(O)C(=O)CCc1cc(-c2ccc(Cl)cc2)n(-c2ccccc2)n1` [Compound 67, 3-[5-(4-Chlorophenyl)-1-phenyl-3-pyrazolyl]-N-hydroxy-N-methyl propanamide] here?
**A.** 30%

**Q.** How did the inhibition in vivo at 40 mg/kg turn out when `COc1ccc(-n2nc(CCC(=O)O)cc2-c2ccc(Cl)cc2)cc1OC` [Compound 74] was run?
**A.** 17%

**Q.** `CCOC(=O)CCc1cc(-c2ccc(Cl)cc2)n(-c2ccc(OCC)cc2)n1` [Compound 75] was tested. Which inhibition in vivo at 40 mg/kg did it give?
**A.** 73%

**Q.** `COc1ccc(-n2nc(CCC(=O)N(O)c3ccccc3)cc2-c2ccc(Cl)cc2)cc1` [Compound 84, 3-[5-(4-chlorophenyl)-1-(4-methoxyphenyl)-3-pyrazolyl]-N-hydroxy-N-phenylpropanamide] was tested. Which inhibition in vivo at 40 mg/kg did it give?
**A.** 27%

**Q.** Which inhibition in vivo at 40 mg/kg does the source give for `COc1ccc(-n2nc(CCC(=O)NC3=NCCS3)cc2-c2ccc(Cl)cc2)cc1` [Compound 85] here?
**A.** 40%

Same assay, conditions: po, 336 h; 50 mpk p.o., rat; read-out: % INH. p.o. (percentage inhibition of pad swelling)

**Q.** How did the inhibition in vivo at 50 mg/kg turn out when `OCCCc1cc(-c2ccc(Cl)cc2)n(-c2ccc(F)cc2)n1` [Compound 62] was run?
**A.** 31%
